The results in this text go back to patent US20230233650A1, “NOVEL FATTY ACID MODIFIED UROCORTIN 2 DERIVATIVES AND THE USES THEREOF” (Novo Nordisk A/S, priority 2021, published 2023).

The structures appear in SMILES notation. Numbered stars: 1 amine (or outer) side, 2 acyl side, 3 side chain; on linkers, the order of the positions; unused ones are H or OH. Side chains are listed from the residue outwards. Peptide text beside a SMILES is read from it. * marks the point of attachment. C20 diacid = O=C(O)CCCCCCCCCCCCCCCCCCC(=O)*; γGlu = O=C(O)[C@H](CCC(=O)[*:2])N[*:1]; AEEA = NCCOCCOCC(=O)O

In one data set the target is T1, Human CRF2 receptor (Homo sapiens, UniProt Q13324).
T1 construct: host or cells: CHO-K1 (membrane preparation)
T1 sequence (Q13324 1-411): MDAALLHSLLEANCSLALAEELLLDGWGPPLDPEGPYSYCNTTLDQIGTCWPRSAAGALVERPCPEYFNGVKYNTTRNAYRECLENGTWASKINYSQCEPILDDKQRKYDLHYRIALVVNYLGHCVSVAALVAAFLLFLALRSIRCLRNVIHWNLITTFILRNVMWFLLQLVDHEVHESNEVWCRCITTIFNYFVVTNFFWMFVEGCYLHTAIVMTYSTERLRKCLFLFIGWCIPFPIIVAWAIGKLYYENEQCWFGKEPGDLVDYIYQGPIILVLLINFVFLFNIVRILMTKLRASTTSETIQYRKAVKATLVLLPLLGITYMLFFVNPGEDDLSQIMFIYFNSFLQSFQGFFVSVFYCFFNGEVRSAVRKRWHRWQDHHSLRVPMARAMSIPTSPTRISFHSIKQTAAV
Nature of the data set: CRF2 receptor binding, scintillation proximity assay (SPA). The conditions noted are these: displacement of [125I]-Sauvagine, CHO-K1 cell membranes. How it is done: The purpose of this example was to test the in vitro binding of the compounds of the invention to receptor subtypes CRF1 and CRF2. The in vitro binding of the compounds was determined in a scintillation proximity assay (SPA) as described below. The native, human Ucn1 and Ucn2 peptides are included as references. Scintillation Proximity Assay: […] Both cell lines were cultured at 37° C. in a humidified atmosphere with 5% CO2. […] Membranes were prepared by the following protocol: cultured cells were washed twice with cold Dulbecco’s phosphate buffered saline and detached using TrypLE™ (ThermoFisher) and transferred to tubes and centrifuged for 5 minutes at 1000 g at +4° C. Pellets were resuspended in ice cold homogenization buffer (20 mM Hepes pH 7.1, 5 mM MgCl2, 1 mg/ml Bacitracin with 2 complete EDTA-free protease inhibitor cocktail tablets/50 ml (Roche)) and then homogenized for 30 seconds using a Ultra-Turrax T25 tissue homogenizer (IKA) at medium speed. The homogenate was centrifuged at 35,000 g for 15 minutes at +4° C. using an ultracentrifuge, and the supernatant was discarded, and fresh homogenization buffer was added. Homogenization of the pellet was repeated a total of three times. The final pellet was resuspended in a few millilitres of homogenization buffer and protein concentration was determined using the Bradford method. The membrane preparation was transferred to cryotubes, and the aliquots were stored at -80° C. Each membrane preparation was subsequently titrated to give an appropriate window in the assay. Test procedure: […] Plates were sealed and incubated at 25° C. for 2 hours in a plate shaker set at 400 rpm and thereafter centrifuged at 1500 rpm for 10 minutes. SPA plates were let to stand at room temperature for about 16 hours prior to reading on microplate scintillation counter. Displacement of radioligand was measured as reduction in luminescence, and IC50 values were calculated by nonlinear regression analysis of four parameter sigmoidal dose-response curves.

Data set [1] in a line: Pharmacokinetic study in minipigs after intravenous administration. It counts as in vivo. The conditions noted are these: female, Göttingen, minipig, plasma, i.v., 2 nmol/kg, harmonic mean, read-out: Terminal half-life (converted). An excerpt:
The purpose of this investigation was to determine the in vivo half-life of the compounds of the invention after i.v. administration to minipigs using a pharmacokinetic (PK) study in Göttingen Minipigs assessing terminal half-life. The expression ‘terminal half-life’ as used herein, and means the time period required to reduce the plasma concentration by 50%, measured after the initial distribution phase.
Animals and housing: Female Göttingen Minipigs, weighing approximately 15-25 kg, were obtained from Ellegaard Minipigs, Dalmose Denmark. The minipigs were housed individually in the Animal Unit at BioAdvice A/S, ∅lstykke Denmark (later Minerva Imaging A/S) and were fed restrictedly twice daily with Altromin 9033 (Chr. Petersen A/S, Ringsted, Denmark). […]
Administration of peptides and dosing solutions: There were no food restrictions during the study and the animals had ad libitum access to water during the whole study period. […] The plasma samples were analysed as described below.
Quantitative Assay for Plasma Samples: The test compound was assayed in plasma by turbulent flow chromatography coupled to liquid chromatography mass spectrometric (LCMS) detection. The selectivity of the method allowed various test compounds to be quantitated in one sample, e.g. cassette dosing. […]

On to `CC[C@H](C)[C@H](NC(=O)[C@H](CCC(=O)O)NC(=O)[C@H](C)NC(=O)[C@H](CC(N)=O)NC(=O)[C@@H](NC(=O)[C@@H](NC(=O)[C@H](C)NC(=O)[C@H](CCC(N)=O)NC(=O)[C@H](CCC(=O)O)NC(=O)[C@H](CCCNC(=N)N)NC(=O)[C@H](C)NC(=O)[C@H](C)NC(=O)[C@H](CCCNC(=N)N)NC(=O)[C@H](C)NC(=O)[C@H](CCCNC(=N)N)NC(=O)[C@H](C)NC(=O)[C@H](CCC(N)=O)NC(=O)[C@H](CCC(=O)O)NC(=O)[C@H](CC(C)C)NC(=O)[C@H](CC(C)C)NC(=O)[C@@H](NC(=O)[C@H](CCC(N)=O)NC(=O)[C@H](CC(C)C)NC(=O)[C@H](CC(C)C)NC(=O)CNC(=O)[C@@H](NC(=O)[C@@H]1CCCN1C(=O)[C@@H](NC(=O)[C@H](CC(=O)O)NC(=O)[C@H](CC(C)C)NC(=O)[C@H](CO)NC(=O)[C@H](CC(C)C)NC(=O)[C@@H](NC(=O)[C@@H](NC(=O)[C@@H](N)CCCCNC(=O)COCCOCCNC(=O)COCCOCCNC(=O)CC[C@H](NC(=O)CC[C@H](NC(=O)CC[C@H](NC(=O)CCCCCCCCCCCCCCCCCCC(=O)O)C(=O)O)C(=O)O)C(=O)O)[C@@H](C)CC)C(C)C)C(C)C)[C@@H](C)CC)[C@@H](C)CC)[C@@H](C)O)[C@@H](C)O)C(=O)N[C@@H](CC(C)C)C(=O)N[C@@H](C)C(=O)N[C@@H](CCC(=O)O)C(=O)N[C@H](C(N)=O)C(C)C` [Compound 3] (H-K([AEEA-AEEA-γGlu-γGlu-γGlu-C20 diacid])IVLSLDVPIGLLQILLEQARARAAREQATTNAEILAEV-NH2), for which the IC50 on Human CRF2 receptor is 1.14 nM. In data set [1], the half-life was 96 h.
As to `CC[C@H](C)[C@H](NC(=O)[C@H](CCC(=O)O)NC(=O)[C@H](C)NC(=O)[C@H](CC(N)=O)NC(=O)[C@@H](NC(=O)[C@@H](NC(=O)[C@H](C)NC(=O)[C@H](CCC(N)=O)NC(=O)[C@H](CCC(=O)O)NC(=O)[C@H](CCCNC(=N)N)NC(=O)[C@H](C)NC(=O)[C@H](C)NC(=O)[C@H](CCCNC(=N)N)NC(=O)[C@H](C)NC(=O)[C@H](CCCNC(=N)N)NC(=O)[C@H](C)NC(=O)[C@H](CCC(N)=O)NC(=O)[C@H](CCC(=O)O)NC(=O)[C@H](CC(C)C)NC(=O)[C@H](CC(C)C)NC(=O)[C@@H](NC(=O)[C@H](CCC(N)=O)NC(=O)[C@H](CC(C)C)NC(=O)[C@H](CC(C)C)NC(=O)CNC(=O)[C@@H](NC(=O)[C@@H]1CCCN1C(=O)[C@@H](NC(=O)[C@H](CC(=O)O)NC(=O)[C@H](CC(C)C)NC(=O)[C@H](CO)NC(=O)[C@H](CC(C)C)NC(=O)[C@@H](NC(=O)[C@@H](NC(=O)[C@@H](N)CCCCNC(=O)COCCOCCNC(=O)COCCOCCNC(=O)CC[C@H](NC(=O)CC[C@H](NC(=O)CC[C@H](NC(=O)CCCCCCCCCCCCCCCCCCC(=O)O)C(=O)O)C(=O)O)C(=O)O)[C@@H](C)CC)C(C)C)C(C)C)[C@@H](C)CC)[C@@H](C)CC)[C@@H](C)O)[C@@H](C)O)C(=O)N[C@@H](CC(C)C)C(=O)N[C@@H](CCC(=O)O)C(=O)N[C@@H](CCCNC(=N)N)C(=O)N[C@H](C(N)=O)C(C)C` [Compound 4] (H-K([AEEA-AEEA-γGlu-γGlu-γGlu-C20 diacid])IVLSLDVPIGLLQILLEQARARAAREQATTNAEILERV-NH2), the IC50 on Human CRF2 receptor was found to be 1.47 nM. Further, the half-life in data set [1] was 103 h.
